Tests used:
Type in all cases: cell-based
ICAM-1 [1] = assay: Rhinovirus-induced ICAM-1 expression in BEAS2B cells; settings: Homo sapiens, BEAS-2B, read-out: IC50 Values for HRV Stimulated Release/Expression ICAM1 (BEAS2B)
Procedure: Human rhinovirus RV16 was obtained from the American Type Culture Collection (Manassas, Va.). Viral stocks were generated by infecting Hela cells with HRV until 80% of the cells were cytopathic.
BEAS2B cells were infected with HRV at an MOI of 5 and incubated for 2 hr at 33° C. with gentle shaking for to promote absorption. The cells were then washed with PBS, fresh media added and the cells were incubated for a further 72 hr. The supernatant was collected for assay of IL-8 concentrations using a Duoset ELISA development kit (R&D systems, Minneapolis, Minn.).
The level of cell surface ICAM-1 expression was determined by cell-based ELISA. At 72 hr after infection, cells were fixed with 4% formaldehyde in PBS. After quenching endogenous peroxidase by adding 0.1% sodium azide and 1% hydrogen peroxide, wells were washed with wash-buffer (0.05% Tween in PBS: PBS-Tween). […] The ICAM-1 signal was detected by adding substrate and reading at 450 nm with a reference wavelength of 655 nm using a spectrophotometer. The wells were then washed with PBS-Tween and total cell numbers in each well were determined by reading absorbance at 595 nm after Crystal Violet staining and elution by 1% SDS solution. The measured OD450-655 readings were corrected for cell number by dividing with the OD595 reading in each well. […]

TNFα = assay: LPS-stimulated TNFα production in sputum macrophages from COPD; settings: Homo sapiens, Macrophage
Procedure: Patients with COPD were inhaled with a nebulised solution of 3% (w/v) hypertonic saline using an ultrasonic nebuliser (Devilbiss, Carthage, Mo.) with tidal breathing for 5 min. This procedure was repeated a maximum of three times until enough sputum was obtained. The sputum samples were homogenized and mixed vigorously using a vortex mixer in 0.02% v/v dithiothreitol (DTT) solution. The samples were re-suspended in PBS (40 mL) followed by centrifugation at 1500 rpm at 4° C. for 10 min to obtain sputum cell pellets. The pellets were washed twice with PBS (40 mL). The sputum cells were then re-suspended in macrophage serum-free medium (macrophage-SFM, Life technologies, Paisley, UK; to achieve 2×10^6/well in a 24 well plate) containing 20 U/mL penicillin, 0.02 mg/mL streptomycin and 5 μg/mL amphotericin B and seeded on high bound 96-well plate, followed by incubation for 2 hr at 37° C. and at 5% CO2 to allow the macrophages to attach to the bottom of the plate. The cells on the plate were washed with fresh macrophage-SFM (200 μL/well) to remove neutrophils and other contaminated cells. The adherent cells (mainly sputum macrophages) on the plate were used for further analysis. Sputum induction and isolation were conducted in Quintiles Drug Research Unit at Guys Hospital and ethics approval and written informed consent was obtained by Quintiles.
Where appropriate, 1 μL of a solution containing either the test compound or reference article at the stated concentrations or alternatively 1 μL of DMSO as the vehicle control was added to each well (200 μL in media) and the cells were incubated for 2 hr. […] After washing with 200 uL wash buffer per well, the beads were resuspended in sheath fluid (150 μL) and analyzed immediately. The level of each analyte in the supernatant was calculated using Xcel Fit software with a 4 or 5-parameter equation using each standard curve. The inhibitions of each cytokine production were calculated at each concentration by comparison with vehicle control. The IC50 values were determined from concentration-inhibition curves using XL-Fit (idbs, Guildford, UK)

ICAM-1 [2] = assay: Poly I:C-induced ICAM-1 expression in BEAS2B cells; settings: Homo sapiens, BEAS-2B, read-out: PolyIC/ICAM1 IC50 (BEAS2B)
Procedure: Poly I:C was used in these studies as a simple, RNA virus mimic. Poly I:C-Oligofectamine mixture (1 μg/mL Poly I:C, ±2% Oligofectamine, 25 μL; Invivogen Ltd., San Diego, Calif., and Invitrogen, Carlsbad, Calif., respectively) was transfected into BEAS2B cells (human bronchial epithelial cells, ATCC). Cells were pre-incubated with final concentrations of test compounds for 2 hr and the level of ICAM-1 expression on the cell surface was determined by cell-based ELISA. At a time point 18 hr after poly I:C transfection, cells were fixed with 4% formaldehyde in PBS (100 μL) and then endogenous peroxidase was quenched by the addition of washing buffer (100 μL, 0.05% Tween in PBS: PBS-Tween) containing 0.1% sodium azide and 1% hydrogen peroxide. Cells were washed with wash-buffer (3×200 μL). and after blocking the wells with 5% milk in PBS-Tween (100 μL) for 1 hr, the cells were incubated with anti-human ICAM-1 antibody (50 μL; Cell Signaling Technology, Danvers, Mass.) in 1% BSA PBS overnight at 4° C.
The cells were washed with PBS-Tween (3×200 μL) and incubated with the secondary antibody (100 μL; HRP-conjugated anti-rabbit IgG, Dako Ltd., Glostrup, Denmark). The cells were then incubated with of substrate (50 μL) for 2-20 min, followed by the addition of stop solution (50 μL, 1N H2SO4). The ICAM-1 signal was detected by reading […] the absorbance at 450 nm against a reference wavelength of 655 nm using a spectrophotometer. The cells were then washed with PBS-Tween (3×200 μL) and total cell numbers in each well were determined by reading absorbance at 595 nm after Crystal Violet staining (50 μL of a 2% solution in PBS) and elution by 1% SDS solution (100 μL) in distilled water. The measured OD 450-655 readings were corrected for cell number by dividing with the OD595 reading in each well. The inhibition of ICAM-1 expression was calculated at each concentration of test compound by comparison with vehicle control.

SMILES	IC50 (ICAM-1 [1]) [nM]	IC50 (TNFα; COPD patients, LPS) [nM]	Emax at 0.1 µg/mL (TNFα; read-out: TNFα E max, sputum macrophage) [%]	IC50 (ICAM-1 [2]) [nM]
Cc1ccc(-n2nc(C(C)(C)C)cc2NC(=O)Nc2ccc(Oc3ccnc(Nc4ccccc4)n3)c3ccccc23)cc1 [Example 1, 1-(3-(tert-Butyl)-1-(p-tolyl)-1H-pyrazol-5-yl)-3-(4-(2-(phenylamino)pyrimidin-4-yloxy)naphthalen-1-yl)urea]	0.023	17	86	–
Cc1ccc(-n2nc(C(C)(C)C)cc2NC(=O)Nc2ccc(Oc3ccnc(Nc4cccc(O)c4)n3)c3ccccc23)cc1 [Example 2, 1-(3-(tert-Butyl)-1-(p-tolyl)-1H-pyrazol-5-yl)-3-(4-((2-((3-hydroxyphenyl)amino)pyrimidin-4-yl)oxy)naphthalen-1-yl)urea]	–	–	–	4.3

— patent publication US10238658B2, “1-pyrazolyl-3-(4-((2-anilinopyrimidin-4-yl) oxy) napththalen-1-yl) ureas as p38 MAP kinase inhibitors” (Respivert Limited, priority 2011, dated 2019)
